From patent publication US10435388B2, “Selective inhibitors of clinically important mutants of the EGFR tyrosine kinase” (CS PHARMATECH LIMITED, priority 2016, dated 2019)
Where a name gives a salt, the structure may show the parent alone.

Columns and labels:
Conditions in all cases: cellular proliferation, several runs
A431 cells (WT) = experiment: A431 inhibition assay (cell proliferation), Method B; type: cell-based, human
Method: (§1) Cell Proliferation Assays—Method B
A431 Inhibition Assay, (Cell Proliferation).
The rest procedure was conducted in the same manner as described above for H1975 cells.

H1975 cells (DM) = experiment: H1975 inhibition assay (cell proliferation), Method B; type: cell-based
Method: as §1
H1975 Inhibition Assay (Cell Proliferation).
(§2) Test compounds were dissolved in DMSO at 30 mM.
(§3) The final concentration was 1,000 cells/well. Add medium only as low control. […] 5% CO2 incubator for 72 hours.
(§4) After 72 hours incubation, remove the plates from incubator and equilibrate at room temperature for 15 minutes. Incubate the CellTiter Glo reagents (Promega, G9243) at 37° C. before the experiment. The buffer was equilibrated to room temperature and used to dissolve the substrate. To determine the cell viability, add 40 μL of CellTiter-Glo reagent into each well to be detected (at 1:1 to culture medium). Then the place the plates at room temperature for 30 min followed by read on EnSpire (PerkinElmer).
(§5) For estimation of IC50, the luminescence readout are transformed to % Inhibition by applying the following equation: The IC50 was then
(§6) [formula] calculated by fitting in XLFit to a four parameters logistic curve.

PC9 cells (SM) = experiment: PC-9 growth inhibition assay (cell proliferation), Method B; type: cell-based, human
Method: as §1, §2, §3, §4, §5, §6
PC-9 Growth Inhibition Assay (Cell Proliferation).
The inhibition assay of PC-9 cells was conducted in the same manner as described above for H1975 cells.

| SMILES | IC50 (A431 cells (WT); Homo sapiens, A-431, 72 h) | IC50 (H1975 cells (DM); Homo sapiens, NCI-H1975, 72 h) | IC50 (PC9 cells (SM); Homo sapiens, PC-9, 72 h) | IC50 (A431 cells (WT); 72 h, hydrochloride) | IC50 (H1975 cells (DM); 72 h, hydrochloride) | IC50 (PC9 cells (SM); 72 h, hydrochloride) |
| --- | --- | --- | --- | --- | --- | --- |
| C=CC(=O)Nc1cc(Nc2ncc(Cl)c(-c3cc(C(N)=O)cc4c3ccn4C)n2)c(OC)cc1N(C)CCN(C)C [Example 47, 4-(2-(5-Acrylamido-4-((2-(dimethylamino)ethyl)(methyl)amino)-2-methoxyphenylamino)-5-chloropyrimidin-4-yl)-1-methyl-1H-indole-6-carboxamide] | 404 nM | 8.79 nM | 12.3 nM |  |  |  |
| C=CC(=O)Nc1cc(Nc2nccc(-c3c[nH]c4c(-c5cc[nH]n5)cccc34)n2)c(OC)cc1N(C)CCN(C)C [Example 46, N-(5-(4-(7-(1H-Pyrazol-3-yl)-1H-indol-3-yl)pyrimidin-2-ylamino)-2-(N-(2-(dimethylamino)ethyl)-N-methylamino)-4-methoxyphenyl) acrylamide] | 253 nM | 116 nM | 21.2 nM |  |  |  |
| C=CC(=O)Nc1cc(Nc2nccc(-n3nc(C(F)F)c4ccccc43)n2)c(OC)cc1N(C)CCN(C)C [Example 35, N-(5-((4-(3-(Difluoromethyl)-1H-indazol-1-yl)pyrimidin-2-yl)amino)-2-((2-(dimethylamino)ethyl)(methyl)amino)-4-methoxyphenyl) acrylamide hydrochloride] | 2020 nM | 29.4 nM | 33.3 nM |  |  |  |
| C=CC(=O)Nc1cc(Nc2nccc(-n3nc(NCC4CC4)c4ccccc43)n2)c(OC)cc1N(C)CCN(C)C [Example 66, N-(5-(4-(3-(Cyclopropylmethylamino)-1H-indazol-1-yl)pyrimidin-2-ylamino)-2-((2-(dimethylamino)ethyl)(methyl)amino)-4-methoxyphenyl) acrylamide] | 6.04 nM | 4.99 nM | 1.96 nM |  |  |  |
| C=CC(=O)Nc1cc(Nc2nccc(-n3nc(N(C)C)c4ccccc43)n2)c(OC(C)C)nc1N(C)CCN(C)C [Example 70, N-(5-((4-(3-(dimethylamino)-1H-indazol-1-yl)pyrimidin-2-yl)amino)-2-((2-(dimethylamino)ethyl)(methyl)amino)-6-isopropoxypyridin-3-yl) acrylamide] | 812 nM | 9.11 nM | 2.27 nM |  |  |  |
| C=CC(=O)Nc1cc(Nc2nccc(-n3nc(N4CCCC4)c4ccccc43)n2)c(OC)cc1N(C)CCN(C)C [Example 59, N-(5-(4-(3-(Pyrrolidin-1-yl)-1H-indazol-1-yl)pyrimidin-2-ylamino)-2-(N-(2-(dimethylamino)ethyl)-N-methylamino)-4-methoxyphenyl) acrylamide] | 716 nM | 8.45 nM | 19.7 nM |  |  |  |
| C=CC(=O)Nc1cc(Nc2nccc(-c3c[nH]c4c(C(=O)NC)cccc34)n2)c(OC)cc1N(C)CCN(C)C [Example 39, N-Methyl 3-(2-((5-acrylamido-4-((2-(dimethylamino)ethyl)(methyl)amino)-2-methoxyphenyl)amino)pyrimidin-4-yl)-1H-indole-7-carboxamide] | 42.3 nM | 0.52 nM | 0.74 nM |  |  |  |
| C=CC(=O)Nc1cc(Nc2nccc(-c3cc(NC)cc4c3ccn4C)n2)c(OC)cc1N(C)CCN(C)C [Example 40, N-(5-(4-(1-Methyl-6-(methylamino)-1H-indol-4-yl)pyrimidin-2-ylamino)-2-(N-(2-(dimethylamino)ethyl)-N-methylamino)-4-methoxyphenyl) acrylamide] | 1880 nM | 43.5 nM | 63 nM |  |  |  |
| C=CC(=O)Nc1cc(Nc2nccc(-c3c[nH]c4c(C(C)(C)C)cccc34)n2)c(OC)cc1N(C)CCN(C)C [Example 48, N-(5-(4-(7-t-Butyl-1H-indol-3-yl)pyrimidin-2-ylamino)-2-(N-(2-(dimethylamino)ethyl)-N-methylamino)-4-methoxyphenyl) acrylamide] | 265 nM | 3.48 nM | 4.01 nM |  |  |  |
| C=CC(=O)Nc1cc(Nc2nccc(-n3cc(-c4ccn[nH]4)c4ccccc43)n2)c(OC)cc1N(C)CCN(C)C [Example 74, N-(5-((4-(3-(1H-Pyrazol-3-yl)-1H-indol-1-yl)pyrimidin-2-yl)amino)-2-((2-(dimethylamino)ethyl)(methyl)amino)-4-methoxyphenyl) acrylamide] | 396 nM | 28 nM | 5.74 nM |  |  |  |
| C=CC(=O)Nc1cc(Nc2nccc(-n3nc(N(C)C)c4ccccc43)n2)c(OCC(F)F)nc1N(C)CCN(C)C [Example 71] | 480 nM | 3.29 nM | 2.45 nM |  |  |  |
| C=CC(=O)Nc1cc(Nc2nccc(-n3nc(N(C)CC)c4ccccc43)n2)c(OC)cc1N(C)CCN(C)C [Example 60, N-(5-(4-(3-(N-Ethyl-N-methylamino)-1H-indazol-1-yl)pyrimidin-2-ylamino)-2-(N-(2-(dimethylamino)ethyl)-N-methylamino)-4-methoxyphenyl) acrylamide] | 545 nM | 8.1 nM | 11.2 nM |  |  |  |
| C=CC(=O)Nc1cc(Nc2nccc(-n3nc(Nc4ccccn4)c4ccccc43)n2)c(OC)cc1N(C)CCN(C)C [Example 58, N-(5-(4-(3-(Pyridin-2-ylamino)-1H-indazol-1-yl)pyrimidin-2-ylamino)-2-(N-(2-(dimethylamino)ethyl)-N-methylamino)-4-methoxyphenyl) acrylamide] | 1.46 nM | 2.36 nM | 1.5 nM |  |  |  |
| C=CC(=O)Nc1cc(Nc2nccc(-c3cc(C(N)=O)c4c(c3)c(Cl)cn4C)n2)c(OC)cc1N(C)CCN(C)C [Example 32, 5-(2-((5-Acrylamido-4-((2-(dimethylamino)ethyl)(methyl)amino)-2-methoxyphenyl)amino)pyrimidin-4-yl)-3-chloro-1N-methyl-1H-indole-7-carboxamide hydrochloride] | 1080 nM | 3.92 nM | 8.52 nM | 784 nM | 3.2 nM | 11.9 nM |
| C=CC(=O)Nc1cc(Nc2nccc(-c3ccc(C(N)=O)c4[nH]ccc34)n2)c(OC)cc1N(C)CCN(C)C [Example 64, 4-(2-(5-Acrylamido-4-((2-(dimethylamino)ethyl)(methyl)amino)-2-methoxyphenylamino)pyrimidin-4-yl)-1H-indole-7-carboxamide] | 426 nM | 7.96 nM | 5.65 nM |  |  |  |
| C=CC(=O)Nc1cc(Nc2nccc(-n3cc(S(=O)(=O)NC)c4ccccc43)n2)c(OC)cc1N(C)CCN(C)C [Example 62] | 43.9 nM | 2.24 nM | 0.94 nM |  |  |  |
| C=CC(=O)Nc1cc(Nc2nccc(-c3c[nH]c(=O)c4c3ccn4C)n2)c(OC)cc1N(C)CCN(C)C [Example 33, N-(2-((2-(Dimethylamino)ethyl)(methyl)amino)-4-methoxy-5-((4-(1N-methyl-7-oxo-6,7-dihydro-1H-pyrrolo[2,3-c]pyridin-4-yl)pyrimidin-2-yl)amino)phenyl) acrylamide] | 88.5 nM | 6.33 nM | 9.9 nM |  |  |  |
| C=CC(=O)Nc1cc(Nc2nccc(-n3cc(C(N)=O)c4ncccc43)n2)c(OC)cc1N(C)CCN(C)C [Example 49, 1-(2-(5-Acrylamido-4-((2-(dimethylamino)ethyl)(methyl)amino)-2-methoxyphenylamino)pyrimidin-4-yl)-1H-pyrrolo[3,2-b]pyridine-3-carboxamide] | 137 nM | 1.84 nM | 0.61 nM |  |  |  |
